This note sets out measurements from patent US6812252B2, “Acylsulfonamide derivatives” (Ajinomoto Co., Inc., priority 2000, dated 2004).

Consider `CCCCCC(=O)NS(=O)(=O)c1ccccc1NC(=O)c1ccc(C#Cc2cccc(C(F)(F)F)c2)cc1` [Example 1, 4-(3-Trifluoromethyl)phenylethynyl-N-(2-hexanoylaminosulfonylphenyl)benzamide], for which the melting point was 194 to 196 °C.
For `CC(=O)CCCC(=O)NS(=O)(=O)c1ccccc1NC(=O)c1ccc(C#Cc2cccc(C(F)(F)F)c2)cc1` [Example 2, 4-(3-Trifluoromethyl)phenylethynyl-N-(2-(5-ketohexanoylamino)-sulfonylphenyl)benzamide] the value was 169 to 171 °C; for `CCCOCC(=O)NS(=O)(=O)c1ccccc1NC(=O)c1ccc(C#Cc2cccc(C(F)(F)F)c2)cc1` [Example 3, 4-(3-Trifluoromethyl)phenylethynyl-N-(2-(2-propyloxyacetylamino)sulfonylphenyl)benzamide], 175 to 177 °C.
The molecule `CCCCCC(=O)NS(=O)(=O)c1ccccc1NC(=O)c1ccc(C#Cc2ccc(C(F)(F)F)cc2)cc1` [Example 4, 4-(4-Trifluoromethyl)phenylethynyl-N-(2-hexanoylaminosulfonylphenyl)benzamide] displayed a melting point of 210 to 212 °C.
To `CCCCCC(=O)NS(=O)(=O)c1ccccc1NC(=O)c1ccc(C#Cc2ccc(OC(F)(F)F)cc2)cc1` [Example 5, 4-(4-Trifluoromethoxy)phenylethynyl-N-(2-hexanoylaminosulfonylphenyl)benzamide] belongs 197 to 199 °C.
For `CC(=O)CCCC(=O)NS(=O)(=O)c1ccccc1NC(=O)c1ccc(C#Cc2ccc(OC(F)(F)F)cc2)cc1` [Example 6, 4-(4-Trifluoromethoxy)phenylethynyl-N-(2-(5-ketohexanoylamino)-sulfonylphenyl)benzamide] the value was 204 to 205 °C; for `CCCCCC(=O)NS(=O)(=O)c1ccccc1NC(=O)c1ccc(C#Cc2ccc(F)cc2)cc1` [Example 7, 4-(4-Fluoro)phenylethynyl-N-(2-hexanoylaminosulfonylphenyl)benzamide], 183 to 186 °C; for `CC(=O)CCCC(=O)NS(=O)(=O)c1ccccc1NC(=O)c1ccc(C#Cc2ccc(F)cc2)cc1` [Example 8, 4-(4-Fluoro)phenylethynyl-N-(2-(5-ketohexanoylamino)sulfonylphenyl)benzamide], 179 to 181 °C.
For `CCCCCC(=O)NS(=O)(=O)c1ccccc1NC(=O)c1ccc(C#Cc2cccc(F)c2)cc1` [Example 9, 4-(3-Fluoro)phenylethynyl-N-(2-hexanoylaminosulfonylphenyl)benzamide] the value was 183 to 186 °C.

In general, melting point refers to the temperature of the solid-liquid transition.
